What was measured:
Assay type in all cases: in vivo
Echinochloa crus-galli [1] = assay: Post-emergence herbicidal activity, ECHCG; design: key: 5=total damage to plant; 0=no damage to plant; details: 1000 g/Ha, post-emergence spray (8 days cultivation), evaluated after 13 days, scale 0-5
Method: (§1) Seeds of a variety of test species were sown in standard soil in pots. After 8 days cultivation (post-emergence) under controlled conditions in a glasshouse (at 24/16° C., day/night; 14 hours light; 65% humidity), the plants were sprayed with an aqueous spray solution derived from the formulation of the technical active ingredient in acetone/water (50:50) solution containing 0.5% Tween 20 (polyoxyethelyene sorbitan monolaurate, CAS RN 9005-64-5). The test plants were then grown in a glasshouse under controlled conditions (at 24/16° C., day/night; 14 hours light; 65% humidity) and watered twice daily. After 13 days, the test was evaluated (5=total damage to plant; 0=no damage to plant).

Zea mays [2] = assay: Pre-emergence herbicidal activity, ZEAMX; details: 1000 g/Ha, pre-emergence spray, evaluated after 13 days, scale 0-5
Method: as §1, with “After” for “After 8 days”, “for one day (pre-emergence)” for “(post-emergence)”

Zea mays [3] = assay: Post-emergence herbicidal activity, ZEAMX; design: key: 5=total damage to plant; 0=no damage to plant; details: 1000 g/Ha, post-emergence spray (8 days cultivation), evaluated after 13 days, scale 0-5
Method: as §1

Amaranthus retroflexus [4] = assay: Post-emergence herbicidal activity, AMARE; design: key: 5=total damage to plant; 0=no damage to plant; details: 1000 g/Ha, post-emergence spray (8 days cultivation), evaluated after 13 days, scale 0-5
Method: as §1

Abutilon theophrasti [5] = assay: Post-emergence herbicidal activity, ABUTH; design: key: 5=total damage to plant; 0=no damage to plant; details: 1000 g/Ha, post-emergence spray (8 days cultivation), evaluated after 13 days, scale 0-5
Method: as §1

Echinochloa crus-galli [6] = assay: Pre-emergence herbicidal activity, ECHCG; design: key: 5=total damage to plant; 0=no damage to plant; details: 1000 g/Ha, pre-emergence spray, evaluated after 13 days, scale 0-5
Method: as §1, with “After” for “After 8 days”, “for one day (pre-emergence)” for “(post-emergence)”

Alopecurus myosuroides [7] = assay: Pre-emergence herbicidal activity, ALOMY; details: 1000 g/Ha, pre-emergence spray, evaluated after 13 days, scale 0-5
Method: as §1, with “After” for “After 8 days”, “for one day (pre-emergence)” for “(post-emergence)”

Alopecurus myosuroides [8] = assay: Post-emergence herbicidal activity, ALOMY; design: key: 5=total damage to plant; 0=no damage to plant; details: 1000 g/Ha, post-emergence spray (8 days cultivation), evaluated after 13 days, scale 0-5
Method: as §1

Setaria faberi [9] = assay: Pre-emergence herbicidal activity, SETFA; design: key: 5=total damage to plant; 0=no damage to plant; details: 1000 g/Ha, pre-emergence spray, evaluated after 13 days, scale 0-5
Method: as §1, with “After” for “After 8 days”, “for one day (pre-emergence)” for “(post-emergence)”

Amaranthus retroflexus [10] = assay: Pre-emergence herbicidal activity, AMARE; design: key: 5=total damage to plant; 0=no damage to plant; details: 1000 g/Ha, pre-emergence spray, evaluated after 13 days, scale 0-5
Method: as §1, with “After” for “After 8 days”, “for one day (pre-emergence)” for “(post-emergence)”

Abutilon theophrasti [11] = assay: Pre-emergence herbicidal activity, ABUTH; design: key: 5=total damage to plant; 0=no damage to plant; details: 1000 g/Ha, pre-emergence spray, evaluated after 13 days, scale 0-5
Method: as §1, with “After” for “After 8 days”, “for one day (pre-emergence)” for “(post-emergence)”

Setaria faberi [12] = assay: Post-emergence herbicidal activity, SETFA; design: key: 5=total damage to plant; 0=no damage to plant; details: 1000 g/Ha, post-emergence spray (8 days cultivation), evaluated after 13 days, scale 0-5
Method: as §1

Structure (SMILES) | ECHCG damage score, application post-emergence (Echinochloa crus-galli [1]) | ZEAMX damage score, application pre-emergence (Zea mays [2]) | ZEAMX damage score, application post-emergence (Zea mays [3]) | AMARE damage score, application post-emergence (Amaranthus retroflexus [4]) | ABUTH damage score, application post-emergence (Abutilon theophrasti [5]) | ECHCG damage score, application pre-emergence (Echinochloa crus-galli [6]) | ALOMY damage score, application pre-emergence (Alopecurus myosuroides [7]) | ALOMY damage score, application post-emergence (Alopecurus myosuroides [8]) | SETFA damage score, application pre-emergence (Setaria faberi [9]) | AMARE damage score, application pre-emergence (Amaranthus retroflexus [10]) | ABUTH damage score, application pre-emergence (Abutilon theophrasti [11]) | SETFA damage score, application post-emergence (Setaria faberi [12])
CON1C(=O)N(c2cc(C(C)(F)F)c(Cl)nn2)C(O)C1C (stereo not drawn) [Example A12] | 5 | 3 | 3 | 5 | 5 | 5 | 3 | 5 | 5 | 5 | 5 | 5
CC1C(O)N(c2cc(C(C)(C)F)c(-c3ccccc3)nn2)C(=O)N1C (stereo not drawn) [Example A3] | 5 | 3 | 4 | 5 | 5 | 4 | 4 | 4 | 5 | 5 | 5 | 5
CON1C(=O)N(c2ccc(C(=O)NC(C)(C)C)nn2)C(O)C1C (stereo not drawn) [Example A14] | 5 | 2 | 5 | 5 | 5 | 4 | 4 | 5 | 4 | 5 | 5 | 5
CCOC1C(O)N(c2cc(C(C)(F)F)c(Cl)nn2)C(=O)N1C (stereo not drawn) [Example A10] | 5 | 4 | 4 | 5 | 5 | 4 | 4 | 5 | 5 | 5 | 5 | 5
CC1C(O)N(c2ccc(C(=O)NC(C)(C)C)nn2)C(=O)N1C (stereo not drawn) [Example A15] | 5 | 3 | 5 | 5 | 5 | 5 | 4 | 5 | 4 | 5 | 5 | 5
CN1CC(O)N(c2cc(C(F)(F)F)c(Cl)nn2)C1=O (stereo not drawn) [Example A5, 3-[6-chloro-5-(trifluoromethyl)pyridazin-3-yl]-4-hydroxy-1-methyl-imidazolidin-2-one] | 5 | 2 | 4 | 5 | 5 | 4 | 4 | 4 | 5 | 5 | 5 | 5
CON1C(=O)N(c2cc(C(C)(C)F)c(Cl)nn2)C(O)C1C (stereo not drawn) [Example A6, 1-[6-chloro-5-(1-fluoro-1-methyl-ethyl)pyridazin-3-yl]-5-hydroxy-3-methoxy-4-methyl-imidazolidin-2-one] | 5 | 3 | 5 | 5 | 5 | 4 | 3 | 4 | 4 | 5 | 5 | 5
CC1C(O)N(c2cc(C(C)(F)F)c(Cl)nn2)C(=O)N1C (stereo not drawn) [Example A11] | 5 | 4 | 5 | 5 | 5 | 5 | 4 | 5 | 5 | 5 | 5 | 5
CC1C(O)N(c2ccc(C(=O)NC(C)(C)C#N)nn2)C(=O)N1C (stereo not drawn) [Example A13] | 3 | 3 | 1 | 5 | 5 | 4 | 4 | 4 | 4 | 5 | 5 | 5

— patent US9723840B2 (SYNGENTA PARTICIPATIONS AG, priority 2013, dated 2017)
